Data on 28 compounds can be found in PubChem BioAssay AID256 (DTP/NCI, 2004).

Values joined by “and” are separate entries in the source; they are usually repeats but may differ in a detail not shown here. Identical values can stand only once. Toxic doses and inconclusive results are not listed.

In this test the test system is CD2F1 mice, L1210 leukemia ip, survival T/C. The experiment in a line: NCI In Vivo Anticancer Drug Screen. Data for tumor model L1210 Leukemia (intraperitoneal) in CD2F1 (CDF1) mice. As to conditions: higher = longer survival. In short, it runs like this:
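In this screen, transplantable tumors were grown in mice given either the compound or its vehicle. Results were expressed as the treated measurement relative to the control measurement.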

Setting [1] is: endpoint: mean survival time, dose: 100.0 mg/kg/injection, schedule: Q01DX009 (ip), vehicle: saline with Tween-80.
The mark [2] stands for this setting: endpoint: mean survival time, dose: 100.0 mg/kg/injection, schedule: Q04DX003 (ip), vehicle: saline with Tween-80.
Where [3] appears, read: endpoint: mean survival time, dose: 200.0 mg/kg/injection, schedule: Q01DX009 (ip), vehicle: saline with Tween-80.
[4] abbreviates: endpoint: mean survival time, dose: 200.0 mg/kg/injection, schedule: Q04DX003 (ip), vehicle: saline with Tween-80.
[5] abbreviates: endpoint: mean survival time, dose: 400.0 mg/kg/injection, schedule: Q01DX009 (ip), vehicle: saline with Tween-80.
Where [6] appears, read: endpoint: mean survival time, dose: 400.0 mg/kg/injection, schedule: Q04DX003 (ip), vehicle: saline with Tween-80.
Setting [7] is: endpoint: mean survival time, dose: 100.0 mg/kg/injection, schedule: Q01DX001 (ip), vehicle: saline with Tween-80.
[8] abbreviates: endpoint: mean survival time, dose: 200.0 mg/kg/injection, schedule: Q01DX001 (ip), vehicle: saline with Tween-80.
[9] abbreviates: endpoint: mean survival time, dose: 400.0 mg/kg/injection, schedule: Q01DX001 (ip), vehicle: saline with Tween-80.
Where [10] appears, read: endpoint: mean survival time, dose: 25.0 mg/kg/injection, schedule: Q01DX009 (ip), vehicle: saline with Tween-80.
[11] abbreviates: endpoint: mean survival time, dose: 50.0 mg/kg/injection, schedule: Q01DX009 (ip), vehicle: saline with Tween-80.
Setting [12] is: endpoint: mean survival time, dose: 100.0 mg/kg/injection, schedule: Q01DX009 (ip), vehicle: other.
Setting [13] is: endpoint: mean survival time, dose: 200.0 mg/kg/injection, schedule: Q01DX009 (ip), vehicle: other.

As for `O=C(O)C1C2CCCCC21` (stereo not given), the T/C is 105 % of control under setting [1]; 98 % of control under setting [2]; 94 % of control under setting [3]; 100 % of control under setting [4]; 101 % of control under setting [5]; 94 % of control under setting [6].
With `O=C1c2cccc(NCCCNCCO)c2C(=O)c2cccc(NCCCNCCO)c21`, the T/C is 105 % of control (endpoint: median survival time, dose: 6.25 mg/kg/injection, schedule: Q01DX009 (ip), vehicle: acid diluted with saline); 117 % of control (endpoint: median survival time, dose: 12.5 mg/kg/injection, schedule: Q01DX009 (ip), vehicle: acid diluted with saline); 116 % of control (endpoint: median survival time, dose: 25.0 mg/kg/injection, schedule: Q01DX009 (ip), vehicle: acid diluted with saline); 88 % of control (endpoint: median survival time, dose: 50.0 mg/kg/injection, schedule: Q01DX009 (ip), vehicle: acid diluted with saline).
Consider `CCCCOC(=S)S.[Pt]`, for which the T/C is, setting by setting: (endpoint: mean survival time, dose: 18.75 mg/kg/injection, schedule: Q04DX003 (ip), vehicle: saline with Tween-80) 101 % of control; (endpoint: mean survival time, dose: 37.5 mg/kg/injection, schedule: Q04DX003 (ip), vehicle: saline with Tween-80) 93 % of control; (endpoint: mean survival time, dose: 75.0 mg/kg/injection, schedule: Q04DX003 (ip), vehicle: saline with Tween-80) 101 % of control; (endpoint: mean survival time, dose: 150.0 mg/kg/injection, schedule: Q04DX003 (ip), vehicle: saline with Tween-80) 101 % of control; (endpoint: mean survival time, dose: 300.0 mg/kg/injection, schedule: Q04DX003 (ip), vehicle: saline with Tween-80) 97 % of control.
`CCCCc1ccc(O)c(CN2CCCCC2)c1`: the T/C is 97 % of control (endpoint: mean survival time, dose: 25.0 mg/kg/injection, schedule: Q04DX003 (ip), vehicle: saline with Tween-80); 102 % of control (endpoint: mean survival time, dose: 50.0 mg/kg/injection, schedule: Q04DX003 (ip), vehicle: saline with Tween-80); 98 % of control and 100 % of control under setting [2].
Take `CCCCCCCCCCCCCCCCC1CCC2CCCCC12` (stereo not given): the T/C is 104 % of control under setting [7], 107 % of control under setting [8] and 97 % of control under setting [9].
On to `S=c1cc[nH]c(=S)[nH]1`, for which the T/C runs as follows: (endpoint: mean survival time, dose: 12.5 mg/kg/injection, schedule: Q01DX009 (ip), vehicle: Klucel (hydroxypropylcellulose) (HPC)) 102 % of control; (endpoint: mean survival time, dose: 25.0 mg/kg/injection, schedule: Q01DX009 (ip), vehicle: Klucel (hydroxypropylcellulose) (HPC)) 98 % of control; (endpoint: mean survival time, dose: 50.0 mg/kg/injection, schedule: Q01DX009 (ip), vehicle: Klucel (hydroxypropylcellulose) (HPC)) 101 % of control.
As to `CC(O)C1OC(n2cnc3c(=S)nc[nH]c32)C(O)C1O` (stereo not given), the T/C is 119 % of control and 107 % of control (endpoint: median survival time, dose: 12.5 mg/kg/injection, schedule: Q01DX005 (ip), vehicle: distilled water + Tween-80); 116 % of control and 124 % of control (endpoint: median survival time, dose: 25.0 mg/kg/injection, schedule: Q01DX005 (ip), vehicle: distilled water + Tween-80).
With `CC1CCCCN1` (stereo not given), the T/C is 95 % of control under setting [7] and 95 % of control under setting [9].
For the compound `COC(=O)C1C2OC3C(OC(=O)C31)C2Br` (stereo not given), the T/C is, setting by setting: under setting [1], 91 % of control; under setting [2], 86 % of control; under setting [3], 91 % of control; under setting [4], 94 % of control; under setting [5], 95 % of control; under setting [6], 91 % of control.
Regarding `CCC1(O)C(=O)OCc2c1cc1n(c2=O)Cc2cc3cc([N+](=O)[O-])ccc3nc2-1` (stereo not given), the T/C is, setting by setting: (endpoint: median survival time, dose: 3.63 mg/kg/injection, schedule: Q04DX002 (ip), vehicle: saline with Tween-80) 185 % of control; (endpoint: median survival time, dose: 7.25 mg/kg/injection, schedule: Q04DX002 (ip), vehicle: saline with Tween-80) 233 % of control; (endpoint: median survival time, dose: 7.5 mg/kg/injection, schedule: Q04DX002 (ip), vehicle: saline with Tween-80) 183 % of control; (endpoint: median survival time, dose: 15.5 mg/kg/injection, schedule: Q04DX002 (ip), vehicle: saline with Tween-80) 219 % of control and 103 % of control.
Regarding `Cc1ccc(S(=O)(=O)N2CCCCC2)cc1`, the T/C runs as follows: (endpoint: mean survival time, dose: 50.0 mg/kg/injection, schedule: Q01DX009 (ip), vehicle: saline) 91 % of control; (endpoint: mean survival time, dose: 100.0 mg/kg/injection, schedule: Q01DX009 (ip), vehicle: saline) 93 % of control; (endpoint: mean survival time, dose: 200.0 mg/kg/injection, schedule: Q01DX009 (ip), vehicle: saline) 93 % of control.
In the case of `CCOC(=O)C(CCC(=O)O)NC(=O)OCc1ccccc1` (stereo not given), the T/C is, setting by setting: under setting [2], 97 % of control; under setting [4], 99 % of control; under setting [6], 91 % of control.
Turning to `CC(=O)[O][Hg][c]1c(C)c(C)[c]([Hg][O]C(C)=O)c(C)c1C`, the T/C is 87 % of control (endpoint: mean survival time, dose: 25.0 mg/kg/injection, schedule: Q04DX002 (ip), vehicle: saline with Tween-80) and 87 % of control (endpoint: mean survival time, dose: 50.0 mg/kg/injection, schedule: Q04DX002 (ip), vehicle: saline with Tween-80).
On to `OC12CCCCC1(O)CCCC2` (stereo not given), for which the T/C reads like this: under setting [7], 100 % of control; under setting [1], 102 % of control; under setting [8], 97 % of control; under setting [3], 102 % of control; under setting [9], 97 % of control; under setting [5], 102 % of control.
Consider `C/C(C(=O)O)=C(\C)c1ccccc1`, for which the T/C by setting is: (endpoint: mean survival time, dose: 100.0 mg/kg/injection, schedule: Q04DX002 (ip), vehicle: saline with Tween-80) 92 % of control; (endpoint: mean survival time, dose: 200.0 mg/kg/injection, schedule: Q04DX002 (ip), vehicle: saline with Tween-80) 103 % of control; (endpoint: mean survival time, dose: 400.0 mg/kg/injection, schedule: Q04DX002 (ip), vehicle: saline with Tween-80) 103 % of control.
With `CCOC(=O)C1(c2ccccc2)C(=O)Oc2ccccc21` (stereo not given), the T/C reads like this: (endpoint: mean survival time, dose: 12.5 mg/kg/injection, schedule: Q01DX009 (ip), vehicle: saline with Tween-80) 98 % of control; under setting [10], 94 % of control and 96 % of control; under setting [11], 89 % of control and 104 % of control; under setting [1], 89 % of control and 93 % of control; under setting [3], 89 % of control; under setting [5], 87 % of control and 91 % of control.
As to `Cc1c(N)cc([N+](=O)[O-])c(C)c1[N+](=O)[O-]`, the T/C under setting [11] is 110 % of control; the T/C under setting [1] was 104 % of control; the T/C under setting [2] was 98 % of control; the T/C under setting [3] was 117 % of control; the T/C under setting [4] was 98 % of control.
For `C=C(C)COc1cc(C=NCCCC)c(C)cc1C`, the T/C under setting [1] is 98 % of control, the T/C under setting [3] is 94 % of control and the T/C under setting [5] is 96 % of control.
Regarding `CCOC(=O)NC(C)(C)CN(C(=O)OCC)C(C)C`, the T/C runs as follows: under setting [12], 102 % of control; under setting [13], 104 % of control.
In the case of `COC(=O)C(C(=O)c1ccccc1)c1ccccc1` (stereo not given), the T/C is, setting by setting: under setting [7], 94 % of control; under setting [8], 97 % of control; under setting [9], 90 % of control.
Turning to `C=CCc1cc(OC)ccc1OC(C)=O`, the T/C under setting [2] is 113 % of control, the T/C under setting [4] is 97 % of control and the T/C under setting [6] is 105 % of control.
Consider `CC1=CCC=C(CNc2ncnc3nc[nH]c23)C1`, for which, under setting [2], the T/C was 87 % of control.
For the compound `CC1CC2CCC1C2O` (stereo not given), the T/C is, setting by setting: (endpoint: mean survival time, dose: 75.0 mg/kg/injection, schedule: Q01DX001 (ip), vehicle: saline) 98 % of control; (endpoint: mean survival time, dose: 150.0 mg/kg/injection, schedule: Q01DX001 (ip), vehicle: saline) 91 % of control; (endpoint: mean survival time, dose: 300.0 mg/kg/injection, schedule: Q01DX001 (ip), vehicle: saline) 87 % of control.
For `COc1nc(-c2ccncc2)nc(N(C)C)n1`, the T/C is, setting by setting: (endpoint: mean survival time, dose: 4.5 mg/kg/injection, schedule: Q04DX002 (ip), vehicle: saline) 98 % of control; (endpoint: mean survival time, dose: 9.0 mg/kg/injection, schedule: Q04DX002 (ip), vehicle: saline) 103 % of control.
On to `N#CC(CCC(=O)O)(CCC(=O)O)c1ccccc1`, for which the T/C runs as follows: under setting [1], 96 % of control; under setting [3], 96 % of control; under setting [5], 96 % of control.
As for `CC1C(N2CCCCC2)CS1(=O)=O` (stereo not given), the T/C (endpoint: mean survival time, dose: 25.0 mg/kg/injection, schedule: Q04DX002 (ip), vehicle: saline) was 104 % of control; the T/C (endpoint: mean survival time, dose: 50.0 mg/kg/injection, schedule: Q04DX002 (ip), vehicle: saline) was 101 % of control; the T/C (endpoint: mean survival time, dose: 100.0 mg/kg/injection, schedule: Q04DX002 (ip), vehicle: saline) is 108 % of control.
On to `NOc1ccc([N+](=O)[O-])cc1[N+](=O)[O-]`, for which, under setting [10], the T/C is 89 % of control.
Take `CC1(C)/C(=N/Nc2ccc([N+](=O)[O-])cc2[N+](=O)[O-])CCc2ccccc21`: the T/C by setting is: (endpoint: mean survival time, dose: 12.5 mg/kg/injection, schedule: Q01DX009 (ip), vehicle: other) 94 % of control; (endpoint: mean survival time, dose: 25.0 mg/kg/injection, schedule: Q01DX009 (ip), vehicle: other) 97 % of control; (endpoint: mean survival time, dose: 50.0 mg/kg/injection, schedule: Q01DX009 (ip), vehicle: other) 90 % of control; under setting [12], 94 % of control; under setting [13], 90 % of control.
